SMILES strings stand for the structures. “Also recorded” adds a separate entry of the source.

In one data set the target is T1, human PF4 (Homo sapiens, UniProt P02776).
T1 construct: PF4 is a 70 amino acid, lysine-rich 7.8 kDa platelet-specific protein; made in house; host or cells: Escherichia coli BL21DE3 pLysS (pT7-7) and/or Drosophila S2 cells
T1 sequence (P02776 32-101): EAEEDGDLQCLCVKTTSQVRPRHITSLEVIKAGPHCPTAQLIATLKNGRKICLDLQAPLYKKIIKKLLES
The data set can be described thus: Inhibition of PF4 tetramer formation (BS3 cross-linking, SDS-PAGE). Type of data set: biochemical. The following applies: for inhibition at 5 µM: 5 μM inhibitor; for inhibition at 5 µM / inhibition at 10 µM: read-out: % inhibition of PF4 tetramer formation at single concentration of inhibitor; for inhibition at 10 µM: 10 μM inhibitor (column A); for IC50: read-out: IC50 of PF4 tetramer formation inhibition. In short, it runs like this: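 Monomer, dimer, trimer and tetramer fractions were quantified by densitometry after reducing 12% SDS-PAGE of BS3-cross-linked (0.2 mM, 30 min, room temperature) PF4. Before cross-linking, 10 μg/ml E. coli-expressed human WT PF4 in PBS was exposed to compound for 15 min at 37° C or 60 min at room temperature; controls lacked compound.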

For another data set, the system named is human platelets. The data set can be described thus: PF4-KKO induced platelet activation, P-selectin, human platelets. Type of data set: cell-based. The note with it: human platelet activation assays; 20 μM and 40 μM (FIGS. 8 and 9).
The test system of data set [1] is FcγRIIA transgenic murine platelets. In words: PF4-KKO induced platelet activation, P-selectin, FcγRIIA transgenic murine platelets. Type of data set: cell-based, mouse. The note with it: for normalized P-selectin levels: FIG. 22; for preventing P-selectin expression: FcγRIIA transgenic murine platelets, 50 μM compound, 37.5 μg/ml PF4, 50 μg/ml KKO (FIGS. 14-21). As to the method:
Whole blood was diluted with 1× Tyrode buffer (5 mM N-2-hydroxyethylpiperazine-N′-2-ethanesulfonic acid, 0.1% BSA, 134 mM NaCl, 0.3 mM NaH2PO4, 3 mM KCl, 2 mM MgCl2, 12 mM NaHCO3, 5 mM glucose) with 0.02 U/ml apyrase and 1 μM PGE1 and centrifuged at 100 g for 10 min. Platelet rich plasma (PRP) was carefully removed and centrifuged at 1000 g for 5 min. Platelet pellet was resuspended in Tyrode buffer with 0.02 U/ml apyrase at 2×10^8/ml concentration at 37° C. PF4 antagonists are diluted in Tyrode buffer, and are incubated with 10 μg/ml human PF4 purified protein at room temperature for 30 min. The PF4-drug complex is then incubated with 1×10^8/ml platelets with 1 mM CaCl2, 0.1% BSA at 37° C. for 10 min. 40 μg/ml KKO and 10 μg/ml anti-CD62P (P-selectin) antibodies are added into the reaction. One milliliter ice-cold PBS is added to each reaction after 5 min of incubation. Labelled platelets are then analyzed by a BD Accuri C6 flow cytometer. The results are represented by both the mean fluorescence intensity and by the percentage of positive platelets.
37.5 μg/ml PF4 with/without 50 μM of the exemplified compound incubated with 3×10^7/ml platelets; 50 μg/ml KKO.

A short description of data set [2]: Mouse microsome stability. Format: in vitro ADME. The note with it: for half-life at 0.5 μM: Mouse microsomes, compound conc = 0.5 μM, n = 1, read-out: Mouse microsome stability Half life t1/2. An excerpt: (§1) Certain exemplified compounds were examined for ADMET (absorption, distribution, metabolism, excretion and toxicity) profiling using conventional assays with the results shown in the Tables 3A-3C below.

The nature of data set [3]: Human microsome stability. Type of data set: in vitro ADME. The note with it: for half-life at 0.5 μM: read-out: Human microsome stability Half life t1/2.
From the text: as §1

Setting [4] is: Human microsomes, compound conc = 0.5 μM, n = 1.

As for `O=C(c1ccc2c(c1)C(=O)C(C(=O)NCCc1ccc3c(c1)OCO3)C2=O)c1ccc2c(c1)C(=O)C(C(=O)NCCc1ccc3c(c1)OCO3)C2=O` (centres unmarked) [Example 18, 5,5′-carbonylbis(1,3-dioxo-indan-2-carboxylic acid (2-benzo[1,3]dioxol-5-yl-ethyl)-amide)], at human PF4, the inhibition at 5 µM worked out at 65%, the inhibition at 10 µM turned out to be 75% and the IC50 amounted to 1.81 µM. The “PF4-KKO induced platelet activation using P-selectin as a marker” value in the data set with human platelets is reported as “inhibitory”.

For `O=C(c1ccc2c(c1)C(=O)C(C(=O)Nc1ccc3c(c1)OCCO3)C2=O)c1ccc2c(c1)C(=O)C(C(=O)Nc1ccc3c(c1)OCCO3)C2=O` (centres unmarked) [Example 29, 5,5′-carbonylbis(1,3-dioxo-indan-2-carboxylic acid (n-(2,3-dihydro-benzo[1,4]dioxin-6-yl))-amide)], in data set [1], the “normalized P-selectin levels” value is “modulate the activity of normalized P-selectin; also recorded: inhibition” and the “preventing P-selectin expression” value is reported as “efficacy”. Moreover, the IC50 at human PF4 came to 3.02 µM. For the same molecule, the “PF4-KKO induced platelet activation using P-selectin as a marker” value in the data set on human platelets is “inhibitory”.

Turning to `O=C(NCCc1ccccc1)C1C(=O)c2ccc(S(=O)(=O)c3ccc4c(c3)C(=O)C(C(=O)NCCc3ccccc3)C4=O)cc2C1=O` (centres unmarked) [Example 33, 5,5′-sulphonylbis(1,3-dioxo-indan-2-carboxylic acid (2-phenylethyl)-amide)], in data set [1], the “normalized P-selectin levels” value was “inhibition” and the “preventing P-selectin expression” value is “efficacy”. Moreover, on human PF4, the inhibition at 5 µM is 67%, the inhibition at 10 µM was 76% and the IC50 came to 1.6 µM. Besides, the “PF4-KKO induced platelet activation using P-selectin as a marker” value in the data set with human platelets is given as “inhibitory”.

With `O=C(c1ccc2c(c1)C(=O)C(C(=O)NCCc1ccccc1)C2=O)c1ccc2c(c1)C(=O)C(C(=O)NCCc1ccccc1)C2=O` (centres unmarked) [Example 20, 5,5′-carbonylbis(1,3-dioxo-indan-2-carboxylic acid (2-phenylethyl)-amide)], the half-life at 0.5 μM in data set [2] was over 145 min. Moreover, in data set [2] (mouse microsomes), the “intrinsic clearance in mouse microsome assay” value is “low intrinsic clearance” and the “stability in mouse microsome assay” value is listed as “excellent stability”. In addition, the half-life at 0.5 μM in data set [3] (setting [4]) is over 145 min. The microsomal CLint at 0.5 μM in data set [3] (Human microsomes, compound conc = 0.5 μM, n = 1, read-out: Human microsome stability Intrinsic Clearance Clint (ml/min/mg protein)) was under 9.5 mL/min/mg. In data set [3] (human microsomes), the “intrinsic clearance in human microsome assay” value is listed as “low intrinsic clearance” and the “stability in human microsome assay” value is recorded as “excellent stability”. In addition, at human PF4, the inhibition at 5 µM is 83%, the inhibition at 10 µM was 92% and the IC50 is 5.75 µM.

Turning to `CC(=O)C1C(=O)c2ccc(C(c3ccc4c(c3)C(=O)C(C(C)=O)C4=O)(C(F)(F)F)C(F)(F)F)cc2C1=O` (centres unmarked) [Example 11, 2-acetyl-5-[(2-acetyl-2,3-dihydro-1,3dioxo-1h-inden-5-yl)-1,1,1,3,3,3-hexafluoropropan-2-yl]-2,3-dihydro-1,3-dioxo-1h-indene], the results for the half-life at 0.5 μM in data set [2] and in data set [3] (setting [4]) were 105 min and over 180 min, respectively. Moreover, the IC50 on human PF4 turned out to be 1.45 µM. In the data set with human platelets, the “PF4-KKO induced platelet activation using P-selectin as a marker” value was “inhibitory”.

Regarding `COc1ccccc1NC(=O)C1C(=O)c2ccc(C(=O)c3ccc4c(c3)C(=O)C(C(=O)Nc3ccccc3OC)C4=O)cc2C1=O` (centres unmarked) [Example 28, 5,5′-carbonylbis(1,3-dioxo-indan-2-carboxylic acid (2-methoxyphenyl)-amide)], in data set [1], the “normalized P-selectin levels” value is recorded as “modulate the activity of normalized P-selectin; also recorded: inhibition” and the “preventing P-selectin expression” value is reported as “efficacy”. In addition, the half-life at 0.5 μM in data set [2] turned out to be 52.2 min. Moreover, the half-life at 0.5 μM in data set [3] (setting [4]) was over 180 min. On human PF4, the inhibition at 5 µM is 82%, the inhibition at 10 µM turned out to be 65% and the IC50 came to 0.64 µM. For the same molecule, in the data set with human platelets, the “PF4-KKO induced platelet activation using P-selectin as a marker” value is “inhibitory”.

As for `O=C(c1ccc2c(c1)C(=O)C(C(=O)NCCc1ccc(F)cc1)C2=O)c1ccc2c(c1)C(=O)C(C(=O)NCCc1ccc(F)cc1)C2=O` (centres unmarked) [Example 22, 5,5′-carbonylbis(1,3-dioxo-indan-2-carboxylic acid (2-(4-fluorophenyl)ethyl)-amide)], in data set [1], the “normalized P-selectin levels” value is “modulate the activity of normalized P-selectin; also recorded: inhibition” and the “preventing P-selectin expression” value was “efficacy”. Besides, the half-life at 0.5 μM in data set [2] was 47.9 min. Moreover, the half-life at 0.5 μM in data set [3] (setting [4]) stood at 59.7 min. On human PF4, the inhibition at 5 µM was found to be 66%, the inhibition at 10 µM stood at 76% and the IC50 worked out at 1.87 µM. Also, the “PF4-KKO induced platelet activation using P-selectin as a marker” value in the data set on human platelets is listed as “inhibitory”.

As for `COc1cccc(NC(=O)C2C(=O)c3ccc(S(=O)(=O)c4ccc5c(c4)C(=O)C(C(=O)Nc4cccc(OC)c4)C5=O)cc3C2=O)c1` (centres unmarked) [Example 36, 5,5′-sulphonylbis(1,3-dioxo-indan-2-carboxylic acid (3-methoxyphenyl)-amide)], in data set [1], the “normalized P-selectin levels” value is “modulate the activity of normalized P-selectin; also recorded: inhibition” and the “preventing P-selectin expression” value is on record as “efficacy”. On human PF4, the inhibition at 5 µM came out at 65%, the inhibition at 10 µM is 70% and the IC50 was determined as 1.19 µM.

On to `Cc1ncc2n1-c1ccc(Cl)cc1C(c1ccccc1F)=NC2` [Midazolam, midazolam, reference compound], for which the half-life at 0.5 μM in data set [2] was 5.3 min. In addition, the “Human microsome stability Half life t1/2” value in data set [3] (setting [4]) is recorded as 4 min.

As for `O=C(O)CCNC(=O)C1C(=O)c2ccc(C(=O)c3ccc4c(c3)C(=O)C(C(=O)NCCC(=O)O)C4=O)cc2C1=O` (centres unmarked) [Example 32, 5,5′-carbonylbis(3-[(1,3-dioxo-indane-2-carbonyl)-amino]-propionic acid)], in data set [1], the “normalized P-selectin levels” value is “modulate the activity of normalized P-selectin; also recorded: inhibition” and the “preventing P-selectin expression” value is listed as “efficacy”. The half-life at 0.5 μM in data set [2] is over 180 min. Further, in data set [3] (setting [4]), the half-life at 0.5 μM is 54 min. In addition, on human PF4, the inhibition at 5 µM amounted to 86%, the inhibition at 10 µM came out at 91% and the IC50 worked out at 2.99 µM. For the same molecule, the “PF4-KKO induced platelet activation using P-selectin as a marker” value in the data set on human platelets is on record as “inhibitory”.

With `O=C(NC1CC1)C1C(=O)c2ccc(S(=O)(=O)c3ccc4c(c3)C(=O)C(C(=O)NC3CC3)C4=O)cc2C1=O` (centres unmarked) [Example 34, 5,5′-sulphonylbis(1,3-dioxo-indan-2-carboxylic acid (cyclopropyl)-amide)], in data set [1], the “normalized P-selectin levels” value was “modulate the activity of normalized P-selectin; also recorded: inhibition” and the “preventing P-selectin expression” value is reported as “efficacy”. Besides, in data set [2], the half-life at 0.5 μM worked out at 86.5 min. The half-life at 0.5 μM in data set [3] (setting [4]) is over 180 min. On human PF4, the inhibition at 5 µM is 60%, the inhibition at 10 µM worked out at 81% and the half-inhibitory concentration (IC50) was 1.06 µM. Also, the “PF4-KKO induced platelet activation using P-selectin as a marker” value in the data set on human platelets was “inhibitory”.

Take `COc1ccc(NC(=O)C2C(=O)c3ccc(C(=O)c4ccc5c(c4)C(=O)C(C(=O)Nc4ccc(OC)cc4)C5=O)cc3C2=O)cc1` (centres unmarked) [Example 31, 5,5′-carbonylbis(1,3-dioxo-indan-2-carboxylic acid (4-methoxyphenyl)-amide)]: in data set [1], the “normalized P-selectin levels” value is “modulate the activity of normalized P-selectin; also recorded: inhibition” and the “preventing P-selectin expression” value is listed as “efficacy”. The IC50 at human PF4 came to 1.74 µM. In addition, the “PF4-KKO induced platelet activation using P-selectin as a marker” value with human platelets is reported as “inhibitory”.

The IC50 is the concentration at which inhibition is half-maximal.
